Patent US11033604B2, “Reagents and methods for treating bacterial infection” (priority 2018, dated 2021)
Positions of bridges follow the written chain, without caps; N, C: chain ends. Non-standard residues stand in square brackets, D forms with d. No end group written: not given here.

How the values were obtained:
S. aureus MN8 biofilms = assay: ThT fluorescence assay of amyloid formation in S. aureus MN8 biofilm cultures; type: cell-based, Staphylococcus aureus; details: for Effect on amyloid fibril formation in S. aureus biofilms (ThT fluorescence, FIG. 1B): MN8 and SH1000 WT strains, particularly MN8; for Effect on amyloid fibril formation in S. aureus biofilms (ThT fluorescence, FIG. 1B) / Reduction of amyloid fibril formation (ThT fluorescence): 24 h, 37° C.; for Reduction of amyloid fibril formation (ThT fluorescence): S. aureus MN8 biofilm, peptide 80 μM unless otherwise noted, vs peptide-free control
Experimental: We developed a novel protocol to identify amyloid fibril formation during biofilm development in two S. aureus strains—SH1000 WT, a rsbU^+ laboratory strain^27, and MN8, a clinical strain isolated from the human urogenital tract (Table 1). After 24 hours of batch growth in microtiter plates, biofilms were washed and incubated with Thioflavin T (ThT), and the resulting fluorescence signals served as a proxy for the extent of PSM fibril formation in the EM (FIG. 1A). Next, we utilized this assay to test α-sheet amyloid inhibitor designs and control peptides (sequences provided in Table 2) in batch biofilm cultures. The first inhibitor used is AP90 (Alternating Peptide #90, referred to as α1 previously^25,26). […] The AP401 and AP407 designs display similar spectral features by CD, except that AP401 has a positive signal in the random coil region (FIG. 7). AP401 has the same sequence as AP90 but with reversed chirality in the strands and turn, thus the D-amino acids give rise to an approximate mirror image CD spectrum relative to AP90. AP407 is a variant of AP90 with a disulfide bond. An unstructured random coil peptide (RC) and a β-hairpin (β) are used as structural controls.
Designed and control peptides were added to the growth medium prior to inoculation, and biofilms were allowed to grow for 24 hours at 37° C. Planktonic cells were removed and the remaining biofilms were assayed for amyloid content using ThT. […] The disulfide-linked peptide design, AP407, reduced the amyloid fibril formation by 46% and 56% in the MN8 and SH1000 WT strains, respectively. In contrast, the random coil and β-sheet control peptides were ineffective.
Overnight cultures of S. aureus (see Table 1 for a list of strains used in this study) were spun down and re-suspended in fresh Luria-Bertani (LB) media to an optical density of 0.1 (600 nm). These cultures were then mixed with reconstituted peptide (or water, in the case of controls) and aliquoted in quadruplicate into wells of a clear 48-well plate (Corning, TC-treated polystyrene). The final concentration of peptide in each well was 80 μM, unless otherwise noted. Plates were covered and biofilms were grown at 37° C. for 24 hours with gentle rocking. At this time, medium and planktonic cells were removed from wells using a vacuum and the remaining adherent biofilms were rinsed once with PBS (BupH™, Thermo Scientific). Thioflavin T (ThT), an established fluorescent label for amyloid fibrils^40, was then added to each well at a concentration of 22 μM and biofilms were incubated statically for 4 hours at room temperature. The solution was then removed from the wells and PBS was added with vigorous pipetting to detach biofilms from the plate surface. Plates were shaken at high speed for 1 minute on a plate shaker to detach any remaining biofilm material and homogenize the samples. The detached biofilm suspensions were transferred to a 96-well black-walled plate (Corning, TC-treated polystyrene) and ThT fluorescence was read at 438/495 nm on a Perkin-Elmer Enspire™ plate reader. Fluorescence measurements were corrected by subtracting the background intensity of identical samples without ThT. For calculation of live:dead cell ratios, biofilm suspensions were prepared as described above and cells were stained with a 1:1 mixture of Syto9 and propidium iodide (LIVE/DEAD BacLight™ Bacterial Viability Kit, Thermo Scientific). After 15 minutes of incubation at room temperature, fluorescence ratios of the two dyes were determined using a Perkin-Elmer Enspire™ plate reader.

[1] = test system: P. aeruginosa PAO1 pFap biofilms; assay: In situ ThT assay of Fap amyloid in P. aeruginosa biofilms; type: cell-based; details: LB medium, 37° C., 48 h
Source text: FIG. 15. Action of synthetic α-sheet peptides in the P. aeruginosa system. […] Error bars indicate standard deviation of the mean of at least three replicates. Significance values are p<0.05: *, p<0.01: **, p<0.001: ***.
The strain used in these experiments is a fap-overexpressing mutant of P. aeruginosa PAO1 WT called PAO1 pFap. The overexpression is generated by cloning the entire fap operon into a host expression vector, which is then transformed into PAO1 WT. […] For in situ assays, overnight cultures from a single colony of freshly transformed PAO1 pFap were used to inoculate 96 well plates in the presence of synthetic α-sheet peptides in LB medium. As a control, biofilms of the deletion strain PAO1 Δfap were grown under the same conditions. Plates were covered and incubated at 37° C. for 48 h. After incubation, planktonic cells and media were gently removed from the biofilms by pipetting. The biofilms were rinsed once with PBS prior to staining with 20 μM ThT. Stained biofilms were resuspended by pipetting and sonication, and the fluorescence of ThT was measured at 448/485 nm in a plate reader.

S. mutans UA159 biofilms = assay: ThT assay for S. mutans biofilms (plate); type: cell-based, Streptococcus mutans; details: 28 h, vs control
Source text: (§1) FIG. 16. Synthetic α-sheet peptides as a novel anti-biofilm agent for the dental pathogen, S. mutans. A) ThT fluorescence of S. mutans biofilms decreases upon addition of synthetic α-sheet peptides AP193, AP407, and AP90. […] D) synthetic α-sheet peptides added to S. mutans grown on hydroxyapatite ceramic particles led to significant decreases in ThT fluorescence.
The peptides AP90, AP407, AP193, P411, and P1 were screened for their ability to inhibit amyloid fibril formation using an optimized ThT assay for S. mutans biofilms. Briefly, S. mutans UA159 overnight cultures were diluted in BHI medium with 30 mM sucrose and 1% (v/v) EC Oxyrase(R) to ensure an oxygen-limited environment. Inocula were then mixed with inhibitors in water, or only water for blank conditions. Biofilms were cultivated at 37° C. in 96 well plates. After 28 h, planktonic cells and media were aspirated. Biofilms were rinsed once with PBS and then resuspended in a solution of 22 μM ThT in PBS. Stained biofilm suspensions were transferred to a new microtiter plate and their fluorescence was measured in a plate reader.
Several synthetic peptides caused significant suppression in the amyloid content of S. mutans biofilms, and the effect was specific to those with α-sheet structure. AP193 at 40 μM decreased ThT fluorescence by 33% (p=0.007). […] AP90 caused a 16% decrease in ThT fluorescence at 85 μM (p=0.017).

PSMα1 = test system: PSMα1
Source text: FIG. 6. […] Error bars represent the standard error of the mean.

[2] = test system: S. mutans biofilms on hydroxyapatite; assay: ThT assay of S. mutans biofilms grown on ceramic-hydroxyapatite particles; type: cell-based, Streptococcus mutans; details: 24 h
Experimental: as §1
To assess peptide inhibition of amyloid fibrils in S. mutans adhered to tooth-like surfaces, biofilms were grown on ceramic-hydroxyapatite particles. Hydroxyapatite is the primary mineral present in the structure of a tooth, so this assay is a more physiologically relevant model of S. mutans accumulation. ThT fluorescence of adhered biofilms was determined after 24 h of growth. Synthetic α-sheet peptides were added to medium and hydroxyapatite ceramic particles prior to cell growth. […] Both AP193 monomer and dimer caused significant decreases in ThT fluorescence (23% and 63%, respectively; FIG. 16D).

Substance | Effect on amyloid fibril formation in S. aureus biofilms (ThT fluorescence, FIG. 1B) (S. aureus MN8 biofilms) | Reduction of amyloid fibril formation (ThT fluorescence) (S. aureus MN8 biofilms) [%] | Amyloid formation in biofilms (ThT) [1] | Decrease in ThT fluorescence (S. mutans UA159 biofilms; 85 μM) [%] | Fibril formation with increasing peptide concentration (FIG. 1C) (S. aureus MN8 biofilms; S. aureus MN8 biofilms, increasing concentrations in culture medium) | Change of binding affinity as PSMα1 converted to β-sheet (PSMα1; PSMα1 at 146 h vs end of lag phase) | Decrease in ThT fluorescence ([2]; 100 μM) [%] | Binding of PSMα1 to peptide-functionalized beads (PSMα1; PSMα1 pre-incubated 0, 24, 48 h) | Decrease in ThT fluorescence (S. mutans UA159 biofilms; 40 μM) [%] | Decrease in ThT fluorescence ([2]; concentration not given) [%]
RGEmNlCwMNEYSGWcMnLkMGR (RGE[dM]N[dL]C[dW]MNEYSGW[dC]M[dN]L[dK]MGR; disulfide 7-16 (inferred)) [AP407, variant of AP90 with a disulfide bond] | significant reduction in amyloid fibril formation | 46 | significantly inhibit amyloid formation | 42 |  |  |  |  |  | 
RGEmNlSwMNEYSGWtMnLkMGR (RGEMNLSWMNEYSGWTMNLKMGR; not fully specified (residues 4, 6, 8, 16, 18, 20); printed as RGEmNlSwMNEYSGWtMnLkMGR) [AP90] | significant reduction in amyloid fibril formation | 47 | significantly inhibit amyloid formation | 16 | decreased in a dose-dependent manner | dropped by two orders of magnitude | 20 |  |  | 
RGEmNyFwMNEYYGWtMnCkMGR (RGE[dM]N[dY]F[dW]MNEYYGW[dT]M[dN]C[dK]MGR) [AP193, hydrophobic AP90 derivative, variant to support different chemical coupling reactions] |  |  | significantly inhibit amyloid formation |  |  |  |  | preferentially bound α-sheet rich PSMα1 (48 h) over earlier time points | 33 | 23
